Results as given in US11964943B2, “3,5-diarylidenyl-n-substituted-piperid-4-one-derived inhibitors of Stat3 pathway activity and uses thereof” (priority 2017, dated 2024).

How the values were obtained:
A549 cells = experiment: SRB growth inhibition and combination index with cisplatin, A549; format: cell-based, human
Procedure: The affected fractions were calculated from the SRB or MTT assay absorbance values and were registered to derive the respective CI values and isobolograms. A CI value of less than 1 (one) indicates synergy.
(§1) The SRB assay was used to assess cell growth inhibition by IE-8 alone and in combination with cisplatin. […] For combination studies drug treatments were sequential with IE-8 applied first followed by cisplatin for 1 h. […] Absorbance was read at 540 nm and results were normalized to untreated controls. For analysis of GC50 values and statistical significance, non-linear regression analysis with a comparison of fits was performed with the GraphPad Prism 6.0 software.
as §1, with “Drug Combination studies. Sulforhodamine B (SRB) Cell Growth Inhibition Assay. The” for “The”, “8 h” for “IE-8”

[1] = tested on: cisplatin-produced DNA interstrand crosslinks; experiment: Modified single cell gel electrophoresis (comet) assay; format: cell-based
Procedure: The following procedure for the modified single-cell gel electrophoresis (comet) assay [Hartley. J. M., et al. Drug-DNA Interact. Protoc. Methods Mol. Biol. 2010, 613, 267] was applied to measure DNA interstrand crosslinking (ICL) induced by platinum drug in DU145 and A549 cells. Exponentially growing cells were treated for 1 h with different concentrations of cisplatin and collected after 0, 9, 24 and 48 h. All procedures were carried out on ice. Cells were diluted to a final concentration of 2.5×10^4 cells/ml and irradiated with X-ray (15 Gy) in order to deliver a fixed number of random DNA strand breaks (except for the untreated unirradiated control). Cells were embedded in 1% agarose on a precoated microscope slide, and each sample was prepared in duplicate. […] Images were captured using an on-line CCD camera and analysed using the Komet Analysis software 4.02 (Andor Technology, Belfast, UK). […] 25 cells were analysed. The tail moment for each image was calculated as the product of the percentage of DNA in the comet tail and the distance between the means of the head and tail distributions (Olive P. L., et al, Radiat Res 122, 86). DNA ICL after drug treatment was expressed as the percentage decrease in tail moment compared with irradiated controls calculated by the formula: % Decrease in tail moment=[1−(TMdi−TMcu/Tci−TMcu)]×100 […]

nuclear Stat3 = experiment: Confocal microscopy of Stat3 localisation; format: cell-based; details: DU145, 5 μM, 5 h
Procedure: For Stat3, pStat3 staining, 2.5×10^4 cells/ml were plated on 13-mm glass cover slip (VWR) in 24 well plates, allowed to adhere and processed the next day. […] Cells were blocked in PBS 5% BSA for 1 h at ambient temperature. Respective proteins were identified by incubation for 4 h with anti-Stat3 and anti-pStat3 rabbit polyclonal antibodies (1:1000, Cell signalling) or anti-phospho-Histone H2A.X mouse monoclonal (1:500; Millipore) diluted in a PBS 1% BSA buffer. Cells were incubated with a secondary fluorescent conjugated antibody Alexa Fluor 488 (1:500; Life Technologies) for 2 h at RT. […]
(§2) Cell nuclei and protein levels were visualized by confocal microscopy (objective ×40, Leica TCS SP2). […] In the case of IE-8 detection only, the blue fluorescent agent was excited with a UV-laser (364 nm) and detected using the DAPI filter. PI was excited with the 488 line of an argon-ion laser and detected at 642 nm. The fluorescence of IE-8 was detected and imaged by z-stack acquisition using the Leica SP2 microscope software. […]
as §2, with “Confocal microscopy.” for “Cell nuclei and protein levels were visualized by confocal microscopy (objective ×40, Leica TCS SP2).”, “8 h” for “IE-8”

## COc1cc(/C=C2\CN(c3ccccc3)C/C(=C\c3cc(OC)c(OC)c(OC)c3)C2=O)cc(OC)c1OC [IE-8, 3,5-Di(3,4,5-trimethoxybenzylidene)-1-phenylpiperidin-4-one]
A549 cells; 10 μM IE-8 1 h then cisplatin 1 h
  combination index (CI) with cisplatin: below 1
A549 cells; IE-8 18 h then cisplatin 1 h, fixed ratio 1:50
  combination index (CI) with cisplatin: below 1
[1]; DU145, IE-8 pretreatment then cisplatin 1 h
  persistence of DNA ICLs in combination treatment: up to 48 h
[1]; DU145 and A549 cells, IE-8 pretreatment overnight or 1 h before cisplatin
  unhooking (repair) of cisplatin-produced DNA ICLs: impairs the ‘unhooking’ of the cisplatin-produced ICLs
Nuclear Stat3
  levels of nuclear Stat3: the levels of nuclear Stat3 were decreased
